Among the data in ChEMBL document CHEMBL3865836, “Biosynthesis-Inspired Total Synthesis of Bioactive Styryllactones (+)-Goniodiol, (6S,7S,8S)-Goniodiol, (-)-Parvistone D, and (+)-Parvistone E” (J Nat Prod, 2016) are IC50 and EC50 values, retold here.

The nature of test [1]: Cytotoxicity against human HeLa cells by trypan blue dye exclusion method. It is filed as functional, cell-based.
A short description of test [2]: Cytotoxicity against human Bel7470 cells by trypan blue dye exclusion method. It counts as functional, cell-based.
Test [3] can be described thus: Cytotoxicity against human Bcap32 cells by trypan blue dye exclusion method. It counts as functional, cell-based.
Test [4] can be described thus: Cytotoxicity against mouse P388 cells. It is filed as functional, cell-based.
Test [5] can be described thus: Cytotoxicity against human A549 cells. It is filed as functional. Conditions: read-out: ED50 (the source's name).

The structures appear in SMILES notation.

In the case of `O=C1C=CC[C@H]([C@@H](O)[C@H](O)c2ccccc2)O1`, the half-inhibitory concentration (IC50) – broadly, the concentration at which inhibition is half-maximal – is 12.8 µM in test [1], 4.1 µM in test [2] and 54.7 µM in test [3].

Take `O=C1C=CC[C@H]([C@H](O)[C@H](O)c2ccccc2)O1` [GONIODIOL]: the IC50 in test [4] was 19.5 µM. In addition, the EC50 in test [5] stood at 0.51 µM.
